Reference: BigSolDB 2.1

Details: in ethanol

CC(C)C1=CC2=CC[C@@H]3[C@](C)(CCC[C@@]3(C)C(=O)O)[C@H]2CC1
Details | solubility (mole fraction)
285.07 K | 0.0165
288.7 K | 0.0183
292 K | 0.0202
294.8 K | 0.0219
297.05 K | 0.0235
299.63 K | 0.0253
301.8 K | 0.0272
304.05 K | 0.0291
306.05 K | 0.0311
308.22 K | 0.0335
310.35 K | 0.036
312.35 K | 0.0385
315.23 K | 0.041
316.85 K | 0.0439
319.03 K | 0.0467
